What was measured:
Assay in all cases: competitive isoTOP-ABPP
Format in all cases: binding
[1] = molecular target: T1, CUL2 Cullin-2 (Homo sapiens, UniProt Q13617); settings: 50 uM, 231 sol, in vitro; for R value (DMSO/fragment) for probe 1 labeling: Q13617_K489
T1 construct: isoTOP-ABPP experiments performed in cell lysates (in vitro); endogenous in cells; host or cells: soluble proteome of human cancer cell lines (MDA-MB-231, Ramos, Jurkat)
Method in brief: (§1)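 Competition format: fragment (50 μM activated ester, 100 μM guanidinylating agent) versus vehicle in lysate, then lysine probe STP-alkyne at 0.1 mM for 1 h. Quantitation by light/heavy TEV-tag MS1 peak areas, reported as R.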

[2] = molecular target: T2, RINT1 RAD50-interacting protein 1 (Homo sapiens, UniProt Q6NUQ1); settings: 50 uM, 231 sol, in vitro; for R value (DMSO/fragment) for probe 1 labeling: Q6NUQ1_K771
T2 construct: isoTOP-ABPP experiments performed in cell lysates (in vitro); endogenous in cells; host or cells: soluble proteome of human cancer cell lines (MDA-MB-231; Ramos and Jurkat also prepared)
Method in brief: as §1

[3] = molecular target: T3, GSTT2B Glutathione S-transferase theta-2B (Homo sapiens, UniProt P0CG30); settings: 50 uM, 231 sol, in vitro; for R value (DMSO/fragment) for probe 1 labeling: P0CG30_K53
T3 construct: isoTOP-ABPP experiments performed in cell lysates (in vitro); endogenous in cells; host or cells: MDA-MB-231 soluble lysate
T3 sequence (P0CG30 1-244): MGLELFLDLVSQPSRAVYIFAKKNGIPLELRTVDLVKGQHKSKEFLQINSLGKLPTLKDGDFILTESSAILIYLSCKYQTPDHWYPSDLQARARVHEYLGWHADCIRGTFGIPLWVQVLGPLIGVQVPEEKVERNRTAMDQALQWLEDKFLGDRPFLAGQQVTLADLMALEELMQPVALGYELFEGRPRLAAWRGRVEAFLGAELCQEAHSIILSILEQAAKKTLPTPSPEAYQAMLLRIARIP
Method in brief: as §1

[4] = molecular target: T4, TRMT10C Mitochondrial ribonuclease P protein 1 (Homo sapiens, UniProt Q7L0Y3); settings: 50 uM, 231 sol, in vitro; for R value (DMSO/fragment) for probe 1 labeling: Q7L0Y3_K325
T4 construct: isoTOP-ABPP experiments performed in cell lysates (in vitro); endogenous in cells; host or cells: soluble proteome of human cancer cell lines (MDA-MB-231; Ramos and Jurkat also prepared)
T4 sequence (Q7L0Y3 40-403): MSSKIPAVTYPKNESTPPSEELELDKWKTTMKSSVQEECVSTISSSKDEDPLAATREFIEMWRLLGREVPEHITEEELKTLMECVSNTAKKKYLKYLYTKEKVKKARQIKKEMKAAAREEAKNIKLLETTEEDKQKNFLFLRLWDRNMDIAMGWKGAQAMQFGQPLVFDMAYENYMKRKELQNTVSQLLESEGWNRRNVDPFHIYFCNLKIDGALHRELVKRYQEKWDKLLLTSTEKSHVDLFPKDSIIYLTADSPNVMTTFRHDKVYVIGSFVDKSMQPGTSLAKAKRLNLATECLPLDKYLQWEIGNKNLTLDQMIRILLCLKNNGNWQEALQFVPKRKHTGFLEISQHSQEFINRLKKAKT
Method in brief: as §1

[5] = molecular target: T5, GTPBP3 tRNA modification GTPase GTPBP3, mitochondrial (Homo sapiens, UniProt Q969Y2); settings: 50 uM, 231 sol, in vitro; for R value (DMSO/fragment) for probe 1 labeling: Q969Y2_K492
T5 construct: isoTOP-ABPP experiments performed in cell lysates (in vitro); endogenous in cells; host or cells: soluble proteome of human cancer cell lines (MDA-MB-231; Ramos and Jurkat also prepared)
T5 sequence (Q969Y2 21-492): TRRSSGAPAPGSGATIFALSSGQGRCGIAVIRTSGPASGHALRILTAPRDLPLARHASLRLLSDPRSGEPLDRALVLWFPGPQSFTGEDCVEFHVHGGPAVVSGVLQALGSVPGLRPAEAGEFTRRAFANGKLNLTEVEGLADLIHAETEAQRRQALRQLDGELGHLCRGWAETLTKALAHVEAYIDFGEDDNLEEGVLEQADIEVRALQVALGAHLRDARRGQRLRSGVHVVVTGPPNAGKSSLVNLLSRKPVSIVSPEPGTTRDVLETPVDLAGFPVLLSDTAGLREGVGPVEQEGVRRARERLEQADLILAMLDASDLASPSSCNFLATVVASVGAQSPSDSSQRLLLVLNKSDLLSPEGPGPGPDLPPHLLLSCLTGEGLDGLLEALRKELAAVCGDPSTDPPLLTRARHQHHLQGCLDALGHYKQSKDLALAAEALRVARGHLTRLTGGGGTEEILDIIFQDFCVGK
Method in brief: as §1

T1 sequence (Q13617 whole entry, the tested form may be a part): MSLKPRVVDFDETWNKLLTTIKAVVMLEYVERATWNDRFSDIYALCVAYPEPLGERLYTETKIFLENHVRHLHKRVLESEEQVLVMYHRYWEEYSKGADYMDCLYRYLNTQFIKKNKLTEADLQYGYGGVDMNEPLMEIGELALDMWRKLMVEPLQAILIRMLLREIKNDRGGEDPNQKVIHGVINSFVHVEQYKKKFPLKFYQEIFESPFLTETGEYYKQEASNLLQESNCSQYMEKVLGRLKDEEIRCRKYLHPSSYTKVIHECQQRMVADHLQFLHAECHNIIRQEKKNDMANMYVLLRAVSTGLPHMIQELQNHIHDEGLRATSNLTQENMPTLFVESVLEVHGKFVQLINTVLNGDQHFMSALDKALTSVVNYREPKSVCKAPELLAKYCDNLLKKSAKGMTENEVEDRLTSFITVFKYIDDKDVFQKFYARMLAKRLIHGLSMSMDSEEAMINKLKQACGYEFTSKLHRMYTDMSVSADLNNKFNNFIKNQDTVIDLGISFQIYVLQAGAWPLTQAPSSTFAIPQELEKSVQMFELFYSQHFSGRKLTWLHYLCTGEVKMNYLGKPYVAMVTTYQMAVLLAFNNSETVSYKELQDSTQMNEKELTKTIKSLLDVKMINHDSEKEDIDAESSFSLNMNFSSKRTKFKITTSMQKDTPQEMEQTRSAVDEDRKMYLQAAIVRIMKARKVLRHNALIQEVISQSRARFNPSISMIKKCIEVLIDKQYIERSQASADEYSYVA
T2 sequence (Q6NUQ1 whole entry, the tested form may be a part): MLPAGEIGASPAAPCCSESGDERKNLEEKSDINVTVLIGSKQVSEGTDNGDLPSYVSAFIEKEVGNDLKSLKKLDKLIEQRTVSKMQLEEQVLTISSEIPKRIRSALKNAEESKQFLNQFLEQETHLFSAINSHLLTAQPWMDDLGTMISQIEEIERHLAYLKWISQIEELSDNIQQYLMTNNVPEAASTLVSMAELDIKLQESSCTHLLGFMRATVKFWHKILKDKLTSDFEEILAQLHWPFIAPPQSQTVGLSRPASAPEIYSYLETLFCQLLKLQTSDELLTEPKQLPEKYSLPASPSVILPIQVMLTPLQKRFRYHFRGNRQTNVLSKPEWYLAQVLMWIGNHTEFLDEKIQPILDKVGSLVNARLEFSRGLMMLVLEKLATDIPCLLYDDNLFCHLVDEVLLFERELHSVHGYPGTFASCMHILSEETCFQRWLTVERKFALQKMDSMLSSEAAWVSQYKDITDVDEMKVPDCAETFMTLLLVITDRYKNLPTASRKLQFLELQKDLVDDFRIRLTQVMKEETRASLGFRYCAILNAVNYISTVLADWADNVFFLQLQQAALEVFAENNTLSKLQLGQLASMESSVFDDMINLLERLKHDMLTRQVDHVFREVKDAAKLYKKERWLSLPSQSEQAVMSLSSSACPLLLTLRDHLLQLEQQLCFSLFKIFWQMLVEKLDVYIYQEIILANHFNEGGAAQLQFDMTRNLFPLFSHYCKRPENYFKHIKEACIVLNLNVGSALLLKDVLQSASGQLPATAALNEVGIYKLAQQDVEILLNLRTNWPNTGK

SMILES: O=C(CCc1cn(-c2ccccc2)nc1-c1ccccc1)Oc1c(F)c(F)c(F)c(F)c1F [fragment 19, Pentafluorophenyl 3-(1,3-diphenyl-1H-pyrazol-4-yl)propanoate]
- R value (DMSO/fragment) for probe 1 labeling [1]: 0.8
- R value (DMSO/fragment) for probe 1 labeling [2]: 1.2
- R value (DMSO/fragment) for probe 1 labeling [3]: 1.0

SMILES: O=C(Oc1c(F)c(F)c(F)c(F)c1F)C(c1ccccc1)c1ccccc1 [fragment 20, Pentafluorophenyl 2,2-diphenylacetate]
- R value (DMSO/fragment) for probe 1 labeling [1]: 0.8
- R value (DMSO/fragment) for probe 1 labeling [4]: 1.1
- R value (DMSO/fragment) for probe 1 labeling [5]: 1.1
- R value (DMSO/fragment) for probe 1 labeling [2]: 1.0
- R value (DMSO/fragment) for probe 1 labeling [3]: 1.0

SMILES: O=C(Oc1c(F)c(F)c(F)c(F)c1F)c1cc(C(F)(F)F)cc(C(F)(F)F)c1 [fragment 21, Pentafluorophenyl 3,5-bis(trifluoromethyl)benzoate]
- R value (DMSO/fragment) for probe 1 labeling [1]: 0.9
- R value (DMSO/fragment) for probe 1 labeling [4]: 0.9
- R value (DMSO/fragment) for probe 1 labeling [5]: 1.3
- R value (DMSO/fragment) for probe 1 labeling [2]: 2.2
- R value (DMSO/fragment) for probe 1 labeling [3]: 0.9

SMILES: COc1cc(CCC(=O)Oc2c(F)c(F)c(F)c(F)c2F)cc(OC)c1OC [fragment 23, Pentafluorophenyl 3-(3,4,5-trimethoxyphenyl)propanoate]
- R value (DMSO/fragment) for probe 1 labeling [1]: 0.9
- R value (DMSO/fragment) for probe 1 labeling [4]: 1.3
- R value (DMSO/fragment) for probe 1 labeling [2]: 1.1
- R value (DMSO/fragment) for probe 1 labeling [3]: 0.9

SMILES: O=C(Oc1c(F)c(F)c(F)c(F)c1F)C1CCN(C(=O)OCc2ccccc2)CC1 [fragment 24, 1-Benzyl 4-(pentafluorophenyl) piperidine-1,4-dicarboxylate]
- isoTOP-ABPP reactivity ratio at lysine Q13617_K489 [1]: 0.9
- isoTOP-ABPP reactivity ratio at lysine Q7L0Y3_K325 [4]: 1.4
- isoTOP-ABPP reactivity ratio at lysine Q6NUQ1_K771 [2]: 1.0
- isoTOP-ABPP reactivity ratio at lysine P0CG30_K53 [3]: 1.0

SMILES: O=C(Oc1c(F)c(F)c(F)c(F)c1F)c1ccc2ccccc2n1 [fragment 25, Pentafluorophenyl quinoline-2-carboxylate]
- isoTOP-ABPP reactivity ratio at lysine Q13617_K489 [1]: 1.1
- isoTOP-ABPP reactivity ratio at lysine Q7L0Y3_K325 [4]: 1.1
- isoTOP-ABPP reactivity ratio at lysine Q6NUQ1_K771 [2]: 1.4
- isoTOP-ABPP reactivity ratio at lysine P0CG30_K53 [3]: 1.0

SMILES: O=C(CCc1coc2cc(F)ccc2c1=O)Oc1c(F)c(F)c(F)c(F)c1F [fragment 26, Pentafluorophenyl 3-(7-fluoro-4-oxo-4H-chromen-3-yl)propanoate]
- isoTOP-ABPP reactivity ratio at lysine Q13617_K489 [1]: 0.9
- isoTOP-ABPP reactivity ratio at lysine Q969Y2_K492 [5]: 5.0
- isoTOP-ABPP reactivity ratio at lysine Q6NUQ1_K771 [2]: 0.9
- isoTOP-ABPP reactivity ratio at lysine P0CG30_K53 [3]: 1.3

SMILES: O=C(CN1C(=O)c2ccccc2C1=O)Oc1c(F)c(F)c(F)c(F)c1F [fragment 27, Pentafluorophenyl 2-(1,3-dioxoisoindolin-2-yl)acetate]
- isoTOP-ABPP reactivity ratio at lysine Q13617_K489 [1]: 1.1
- isoTOP-ABPP reactivity ratio at lysine Q969Y2_K492 [5]: 1.6
- isoTOP-ABPP reactivity ratio at lysine Q6NUQ1_K771 [2]: 1.1
- isoTOP-ABPP reactivity ratio at lysine P0CG30_K53 [3]: 0.9
